Target: P. falciparum apicoplast DNA polymerase (Pf-apPOL) (Plasmodium falciparum, UniProt Q8ILY1)
Assay: Fluorescence-based high-throughput DNA polymerase assay (molecular beacon), primary screen and dose-response
Format: biochemical
Conditions: for DNA Pol: 90 min, 10 µM; for % inhibition apPOL 180' 2.5 / % inhibition apPOL 180' 5 / % inhibition apPOL 180' 10 / % inhibition apPOL 180' 20 / % inhibition apPOL 180' 40 / % inhibition apPOL 180' 80: read at 180'
Procedure, shortened: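 Single-point screening used 10 µM compound with 20 nM polymerase, 20 nM hairpin substrate and 6 µM dNTPs for 90 min at 25 °C. Confirmatory titrations (2.5–80 µM) followed fluorescence at three times, and IC50 was derived from a fit including a cooperativity term n.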

Chain of P. falciparum apicoplast DNA polymerase (Pf-apPOL) (Q8ILY1 entry or part of it): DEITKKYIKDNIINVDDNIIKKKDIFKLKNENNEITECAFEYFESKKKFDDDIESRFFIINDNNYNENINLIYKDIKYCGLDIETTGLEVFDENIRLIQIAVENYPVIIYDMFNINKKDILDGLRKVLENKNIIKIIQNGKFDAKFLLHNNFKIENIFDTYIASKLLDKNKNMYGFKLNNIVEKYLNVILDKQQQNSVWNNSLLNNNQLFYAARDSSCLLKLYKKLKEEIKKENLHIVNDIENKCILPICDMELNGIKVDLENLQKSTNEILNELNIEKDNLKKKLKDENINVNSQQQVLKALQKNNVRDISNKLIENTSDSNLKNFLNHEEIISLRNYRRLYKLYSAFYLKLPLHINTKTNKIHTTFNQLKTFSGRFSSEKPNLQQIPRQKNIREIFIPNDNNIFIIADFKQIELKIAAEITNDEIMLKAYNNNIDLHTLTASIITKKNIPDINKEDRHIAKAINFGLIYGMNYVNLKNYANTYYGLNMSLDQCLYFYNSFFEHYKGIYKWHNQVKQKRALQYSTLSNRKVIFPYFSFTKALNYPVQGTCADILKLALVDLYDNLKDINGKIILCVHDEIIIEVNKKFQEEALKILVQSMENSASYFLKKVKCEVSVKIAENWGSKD

O=C(CCc1csc(NC(=O)Nc2ccccc2)n1)Nc1nc2ccccc2s1 [KU0177354]
DNA Pol (186 hits, DNA Pol (screen value), unit not given): 40
DNA Pol ('DNA Pol' (screen value), unit not given): 40
% inhibition Apo pol 10' 2.5 (DRC-1, read at 10', concentration 2.5): 5.576%
% inhibition Apo pol 10' 5 (DRC-1, read at 10', concentration 5): 8.503%
% inhibition Apo pol 10' 10 (DRC-1, read at 10', concentration 10): 43.0217%
% inhibition Apo pol 10' 20 (DRC-1, read at 10', concentration 20): 76.9078%
% inhibition Apo pol 10' 40 (DRC-1, read at 10', concentration 40): 79.3304%
% inhibition Apo pol 10' 80 (DRC-1, read at 10', concentration 80): 82.5837%
% inhibition Apol 90' 2.5 (DRC-1, read at 90', concentration 2.5): -1.376%
% inhibition Apol 90' 5 (DRC-1, read at 90', concentration 5): -0.284%
% inhibition Apol 90' 10 (DRC-1, read at 90', concentration 10): 25.6988%
% inhibition Apol 90' 20 (DRC-1, read at 90', concentration 20): 59.1025%
% inhibition Apol 90' 40 (DRC-1, read at 90', concentration 40): 63.1922%
% inhibition Apol 90' 80 (DRC-1, read at 90', concentration 80): 69.3927%
% inhibition apPOL 180' 2.5 (DRC-1, concentration 2.5): -6.865%
% inhibition apPOL 180' 5 (DRC-1, concentration 5): -6.2%
% inhibition apPOL 180' 10 (DRC-1, concentration 10): 11.7395%
% inhibition apPOL 180' 20 (DRC-1, concentration 20): 39.4261%
% inhibition apPOL 180' 40 (DRC-1, concentration 40): 45.9927%
% inhibition apPOL 180' 80 (DRC-1, concentration 80): 55.8861%
% inhibition Apo pol 5' (DRC-2, concentration 5): -6%
% inhibition Apo pol 5' (DRC-2, concentration 20): 37%
% inhibition Apol 40' (DRC-2, concentration 5): -6%
% inhibition Apol 40' (DRC-2, concentration 10): 46%
% inhibition Apol 40' (DRC-2, concentration 20): 49%
% inhibition Apol 40' (DRC-2, concentration 40): 53%
% inhibition Apol 40' (DRC-2, concentration 80): 49%
% inhibition ApPOL 90' (DRC-2, concentration 40): 53%
% inhibition apPOL 180' (DRC-2, concentration 20): 37%
% inhibition apPOL 180' (DRC-2, concentration 80): 46%
% inhibition Apo pol 5' 2.5 (DRC-2, read at 5', concentration 2.5): -3.16%
% inhibition Apo pol 5' 5 (DRC-2, read at 5', concentration 5): -6%
% inhibition Apo pol 5' 10 (DRC-2, read at 5', concentration 10): 38%
% inhibition Apo pol 5' 20 (DRC-2, read at 5', concentration 20): 37%
% inhibition Apo pol 5' 40 (DRC-2, read at 5', concentration 40): 34%
% inhibition Apo pol 5' 80 (DRC-2, read at 5', concentration 80): 29%
% inhibition Apol 40' 2.5 (DRC-2, read at 40', concentration 2.5): -3.41%
% inhibition Apol 40' 5 (DRC-2, read at 40', concentration 5): -6%
% inhibition Apol 40' 10 (DRC-2, read at 40', concentration 10): 46%
% inhibition Apol 40' 20 (DRC-2, read at 40', concentration 20): 49%
% inhibition Apol 40' 40 (DRC-2, read at 40', concentration 40): 53%
% inhibition Apol 40' 80 (DRC-2, read at 40', concentration 80): 49%
% inhibition ApPOL 90' 2.5 (DRC-2, read at 90', concentration 2.5): -4%
% inhibition ApPOL 90' 5 (DRC-2, read at 90', concentration 5): -7%
% inhibition ApPOL 90' 10 (DRC-2, read at 90', concentration 10): 43%
% inhibition ApPOL 90' 20 (DRC-2, read at 90', concentration 20): 48%
% inhibition ApPOL 90' 40 (DRC-2, read at 90', concentration 40): 53%
% inhibition ApPOL 90' 80 (DRC-2, read at 90', concentration 80): 51%
% inhibition apPOL 180' 2.5 (DRC-2, concentration 2.5): -8%
% inhibition apPOL 180' 5 (DRC-2, concentration 5): -12%
% inhibition apPOL 180' 10 (DRC-2, concentration 10): 32%
% inhibition apPOL 180' 20 (DRC-2, concentration 20): 37%
% inhibition apPOL 180' 40 (DRC-2, concentration 40): 47%
% inhibition apPOL 180' 80 (DRC-2, concentration 80): 46%

CCCCC(=O)N1CCc2c(nc3cc(-c4ccccc4Cl)[nH]n3c2=O)C1 [Molecule 37, CCCCC(=O)N1CCc2c(C1)nc1n(c2=O)[nH]c(c1)c1ccccc1Cl]
DNA Pol ("DNA Pol" of the 186 hits list (screen value)): 43
% inhibition Apo pol 10' (DRC-1, concentration 2.5): 9.306%
% inhibition Apo pol 10' (DRC-1, concentration 5): 24.2361%
% inhibition Apo pol 10' (DRC-1, concentration 10): 50.6318%
% inhibition Apo pol 10' (DRC-1, concentration 20): 65.8539%
% inhibition Apo pol 10' (DRC-1, concentration 40): 79.9976%
% inhibition Apo pol 10' (DRC-1, concentration 80): 82.2007%
% inhibition Apol 90' (DRC-1, concentration 2.5): 2.3506%
% inhibition Apol 90' (DRC-1, concentration 5): 13.0098%
% inhibition Apol 90' (DRC-1, concentration 10): 36.7881%
% inhibition Apol 90' (DRC-1, concentration 20): 53.1884%
% inhibition Apol 90' (DRC-1, concentration 40): 71.0429%
% inhibition Apol 90' (DRC-1, concentration 80): 81.0911%
% inhibition apPOL 180' (DRC-1, concentration 2.5): -3.183%
% inhibition apPOL 180' (DRC-1, concentration 5): 4.447%
% inhibition apPOL 180' (DRC-1, concentration 10): 22.1273%
% inhibition apPOL 180' (DRC-1, concentration 20): 36.1098%
% inhibition apPOL 180' (DRC-1, concentration 40): 57.5163%
% inhibition apPOL 180' (DRC-1, concentration 80): 72.7607%
% inhibition Apo pol 5' (DRC-2, concentration 2.5): 11%
% inhibition Apo pol 5' (DRC-2, concentration 5): 13%
% inhibition Apo pol 5' (DRC-2, concentration 10): 29%
% inhibition Apo pol 5' (DRC-2, concentration 20): 33%
% inhibition Apo pol 5' (DRC-2, concentration 40): 46%
% inhibition Apo pol 5' (DRC-2, concentration 80): 35%
% inhibition Apol 40' (DRC-2, concentration 2.5): 13%
% inhibition Apol 40' (DRC-2, concentration 5): 15%
% inhibition Apol 40' (DRC-2, concentration 10): 33%
% inhibition Apol 40' (DRC-2, concentration 20): 38%
% inhibition Apol 40' (DRC-2, concentration 40): 62%
% inhibition Apol 40' (DRC-2, concentration 80): 62%
% inhibition ApPOL 90' (DRC-2, concentration 2.5): 12%
% inhibition ApPOL 90' (DRC-2, concentration 5): 13%
% inhibition ApPOL 90' (DRC-2, concentration 10): 30%
% inhibition ApPOL 90' (DRC-2, concentration 20): 35%
% inhibition ApPOL 90' (DRC-2, concentration 40): 63%
% inhibition ApPOL 90' (DRC-2, concentration 80): 68%
% inhibition apPOL 180' (DRC-2, concentration 2.5): 7%
% inhibition apPOL 180' (DRC-2, concentration 5): 8.42%
% inhibition apPOL 180' (DRC-2, concentration 10): 23%
% inhibition apPOL 180' (DRC-2, concentration 20): 23%
% inhibition apPOL 180' (DRC-2, concentration 40): 55%
% inhibition apPOL 180' (DRC-2, concentration 80): 68%
DNA Pol (primary screen value, DNA Pol): 43

CCC(C)NC(=O)c1cc(NC(C)=O)cc2nc(C)ccc12 (stereo not shown) [KU0206314]
DNA Pol ('DNA Pol' of the 186 hits list (primary screen value)): 24
DNA Pol (DNA Pol (primary screen value)): 24
% inhibition Apo pol 10' (DRC-1, concentration 2.5): 2.024%
% inhibition Apo pol 10' (DRC-1, concentration 5): 11.6857%
% inhibition Apo pol 10' (DRC-1, concentration 10): 27.7087%
% inhibition Apo pol 10' (DRC-1, concentration 20): 37.1675%
% inhibition Apo pol 10' (DRC-1, concentration 40): 74.587%
% inhibition Apo pol 10' (DRC-1, concentration 80): 89.0945%
% inhibition Apol 90' (DRC-1, concentration 2.5): -1.658%
% inhibition Apol 90' (DRC-1, concentration 5): 3.672%
% inhibition Apol 90' (DRC-1, concentration 10): 15.6061%
% inhibition Apol 90' (DRC-1, concentration 20): 20.1807%
% inhibition Apol 90' (DRC-1, concentration 40): 54.0066%
% inhibition Apol 90' (DRC-1, concentration 80): 77.404%
% inhibition apPOL 180' (DRC-1, concentration 2.5): -4.723%
% inhibition apPOL 180' (DRC-1, concentration 5): -1.48%
% inhibition apPOL 180' (DRC-1, concentration 10): 7.7142%
% inhibition apPOL 180' (DRC-1, concentration 20): 9.245%
% inhibition apPOL 180' (DRC-1, concentration 40): 37.6309%
% inhibition apPOL 180' (DRC-1, concentration 80): 66.384%
% inhibition Apo pol 5' (DRC-2, concentration 2.5): 10%
% inhibition Apo pol 5' (DRC-2, concentration 5): 11%
% inhibition Apo pol 5' (DRC-2, concentration 10): 29%
% inhibition Apo pol 5' (DRC-2, concentration 20): 42%
% inhibition Apo pol 5' (DRC-2, concentration 40): 49%
% inhibition Apo pol 5' (DRC-2, concentration 80): 53%
% inhibition Apol 40' (DRC-2, concentration 2.5): 7%
% inhibition Apol 40' (DRC-2, concentration 5): 7%
% inhibition Apol 40' (DRC-2, concentration 10): 25%
% inhibition Apol 40' (DRC-2, concentration 20): 40%
% inhibition Apol 40' (DRC-2, concentration 40): 58%
% inhibition Apol 40' (DRC-2, concentration 80): 70%
% inhibition ApPOL 90' (DRC-2, concentration 2.5): 5.39%
% inhibition ApPOL 90' (DRC-2, concentration 5): 6%
% inhibition ApPOL 90' (DRC-2, concentration 10): 21%
% inhibition ApPOL 90' (DRC-2, concentration 20): 35%
% inhibition ApPOL 90' (DRC-2, concentration 40): 57%
% inhibition ApPOL 90' (DRC-2, concentration 80): 73%
% inhibition apPOL 180' (DRC-2, concentration 2.5): 1.48%
% inhibition apPOL 180' (DRC-2, concentration 5): 0.928%
% inhibition apPOL 180' (DRC-2, concentration 10): 12%
% inhibition apPOL 180' (DRC-2, concentration 20): 23%
% inhibition apPOL 180' (DRC-2, concentration 40): 48%
% inhibition apPOL 180' (DRC-2, concentration 80): 72%

From publication PMC9090415, “Discovery of small molecule inhibitors of Plasmodium falciparum apicoplast DNA polymerase” (Journal of Enzyme Inhibition and Medicinal Chemistry, 2022)
